These results are taken from the OligoGym collection.

This series addresses DGAT2. The note with it: ASO.

“And” between values parts separate entries of the source, which are not always exact repeats. Equal entries are not always repeated. After the bases stand the sugars from the 5' end (letter, count) and the backbone: PS all phosphorothioate, else s phosphorothioate and o phosphodiester by linkage. Methylation of C is not given here. e = 2'-O-(2-methoxyethyl) (MOE); d = 2'-deoxy (DNA)

As for “GGCATGGAGCTCAGAGACTC (sugars e5 d10 e5, PS)”, the target mRNA inhibition runs as follows: (HepG2, 0.12 µM) 77%; (HepG2, 2.5 µM) 25%; (HepG2, 10 µM) 76%; (HepG2, 20 µM) 49%.
The sequence “CAGGTACTCCCTCAACACAG (sugars e5 d10 e5, PS)” displayed a target mRNA inhibition (HepG2, 0.12 µM) of 52%.
For the sequence “CTTACTGTTCAGCAGTCTGC (sugars e5 d10 e5, PS)”, the target mRNA inhibition by setting is: (HepG2, 2.5 µM) 57%; (HepG2, 10 µM) 90%.
In turn, “AGCAGGTTGTGTGTCTTCAC (sugars e3 d14 e3, PS)” had a target mRNA inhibition (HepG2, 0.12 µM) of 63%.
The same measure, in the same setting: in the case of “GGGCACCAGCCCCCAGGTGT (sugars e5 d10 e5, PS)” it was 34%.
Turning to “CTTTGAGCATCCCCAATCCC (sugars e5 d10 e5, PS)”, the target mRNA inhibition is, setting by setting: (HepG2, 2.5 µM) 14%; (HepG2, 10 µM) 75%.
Consider “TGCCAATGCCTAGGTCACAG (sugars e5 d10 e5, PS)”, for which the target mRNA inhibition reads like this: (HepG2, 2.5 µM) 78% and 87%; (HepG2, 10 µM) 87% and 91%.
Under “HepG2, 0.12 µM”, “AAGTGAACCCTCACTTCCCA (sugars e5 d10 e5, PS)” showed a target mRNA inhibition of 35%.
The same measure, in the same setting: to “GTTGTGTGTCTTCACCAGCT (sugars e2 d13 e5, PS)” belongs 65%; to “TCAGCCACCCAAGAAAAACC (sugars e5 d10 e5, PS)”, 0%.
On to “AACTGAGATCTCCAGCAGCA (sugars e5 d10 e5, PS)”, for which the target mRNA inhibition (HepG2, 2.5 µM) was 91% and 78%; the target mRNA inhibition (HepG2, 10 µM) was 94% and 96%.
For “CCCCCACTGTCAGTCTCTCC (sugars e5 d10 e5, PS)”, the target mRNA inhibition stood at 37% (HepG2, 2.5 µM) and 76% (HepG2, 10 µM).
Regarding “AGACCACATGAAGTATCTAA (sugars e5 d10 e5, PS)”, the target mRNA inhibition (HepG2, 0.12 µM) amounted to 50%.
Regarding “AGTTTCGGACCCACTGTGAC (sugars e2 d13 e5, PS)”, the target mRNA inhibition (HepG2, 0.12 µM) was 64%.
The same measure, in the same setting: to “CAGGGTGACTTTGCCCCATT (sugars e5 d10 e5, PS)” belongs 43%.
As for “GCCTGGACAAGTCCTGC (sugars e3 d10 e4, PS)”, the target mRNA inhibition was 68% and 75% (HepG2, 2.5 µM); 89% and 97% (HepG2, 10 µM).
“GTCACCTCTTCCAGGAAGAC (sugars e5 d10 e5, PS)”: the target mRNA inhibition (HepG2, 2.5 µM) is 83% and 73% and 76%; the target mRNA inhibition (HepG2, 10 µM) is 92% and 88%.
On to “TCCAGACTGGATTTACTGAA (sugars e5 d10 e5, PS)”, for which the target mRNA inhibition (HepG2, 0.12 µM) stood at 60%.
On to “TTGCCACTCCCATTCTTTGA (sugars e3 d14 e3, PS)”, for which the target mRNA inhibition (HepG2, 0.12 µM) amounted to 59%.
Take “AGGATGAACTAAATCCACCA (sugars e5 d10 e5, PS)”: the target mRNA inhibition was 62% (HepG2, 2.5 µM) and 90% (HepG2, 10 µM).
Regarding “TTTGCTCAGTTCTTCCAACC (sugars e5 d10 e5, PS)”, the target mRNA inhibition by setting is: (HepG2, 2.5 µM) 72% and 70%; (HepG2, 10 µM) 93% and 92%.
Consider “CTGGCTCAGTTCACCTCCAG (sugars e5 d10 e5, PS)”, for which the target mRNA inhibition (HepG2, 0.12 µM) worked out at 90%.
For the sequence “AAGGCACCTGTTACTACATG (sugars e5 d10 e5, PS)”, the target mRNA inhibition is, setting by setting: (HepG2, 2.5 µM) 67%; (HepG2, 10 µM) 93%.
Turning to “AAGTAAGCCTCGGTGTCCTC (sugars e5 d10 e5, PS)”, the target mRNA inhibition came out at 84% (HepG2, 2.5 µM) and 69% (HepG2, 10 µM).
“GCCCAGTTTCGGACCCACTG (sugars e3 d14 e3, PS)” displayed a target mRNA inhibition (HepG2, 0.12 µM) of 81%.
Same read-out and setting: in the case of “GTTTTGGGAACTCATGCATT (sugars e5 d10 e5, PS)” it was 50%.
For “ACTCCCACCTGAGTGCTGCA (sugars e5 d10 e5, PS)”, the target mRNA inhibition is 92% (HepG2, 2.5 µM) and 80% (HepG2, 10 µM).
For the setting “HepG2, 0.12 µM”, “CGACAGCGCAGGTCCTCCGT (sugars e5 d10 e5, PS)” came in with a target mRNA inhibition of 48%.
As for “CTCAGTTCTTCCAACCAGTG (sugars e5 d10 e5, PS)”, the target mRNA inhibition by setting is: (HepG2, 2.5 µM) 83% and 68%; (HepG2, 10 µM) 93% and 91%.
Sequence “GCCACCCCCATCCTCATCCT (sugars e5 d10 e5, PS)” showed a target mRNA inhibition (HepG2, 0.12 µM) of 0%.
“TCTCATCAAGAGATAACAGA (sugars e5 d10 e5, PS)” displayed a target mRNA inhibition (HepG2, 0.12 µM) of 6%.
The same measure, in the same setting: to “GCTGGATGGGAAAGTAGTCT (sugars e5 d10 e5, PS)” belongs 22%.
“AGGACCCACTGGAGCACTGA (sugars e3 d14 e3, PS)” had a target mRNA inhibition (HepG2, 0.12 µM) of 82%; a target mRNA inhibition (HepG2, 2.5 µM) of 16%; a target mRNA inhibition (HepG2, 10 µM) of 38%; a target mRNA inhibition (HepG2, 20 µM) of 53%.
“ACATATCCCCAACTGAAACA (sugars e5 d10 e5, PS)”: the target mRNA inhibition (HepG2, 0.12 µM) amounted to 21%.
The same measure, in the same setting: to “TGAGTAGTCAAAGGTGGCTT (sugars e5 d10 e5, PS)” belongs 30%.
As for “ACACACAATATCCATGGACT (sugars e5 d10 e5, PS)”, the target mRNA inhibition reads like this: (HepG2, 2.5 µM) 68%; (HepG2, 10 µM) 95%.
Regarding “GGTCTGGGAACAGCAGC (sugars e3 d10 e4, PS)”, the target mRNA inhibition (HepG2, 2.5 µM) is 72% and 76%; the target mRNA inhibition (HepG2, 10 µM) is 79% and 82%.
“GGTGGTTGCAATGTTGCCAT (sugars e5 d10 e5, PS)”: the target mRNA inhibition was 90% and 76% (HepG2, 2.5 µM); 93% and 90% (HepG2, 10 µM).
In the case of “GCCTCCATGTACATGGTGTG (sugars e5 d10 e5, PS)”, the target mRNA inhibition (HepG2, 0.12 µM) came to 63%.
As for “CTTCACCAGGGCCTCCATGT (sugars e5 d10 e5, PS)”, the target mRNA inhibition (HepG2, 0.12 µM) turned out to be 46%; the target mRNA inhibition (HepG2, 2.5 µM) was determined as 10%; the target mRNA inhibition (HepG2, 10 µM) was determined as 66%; the target mRNA inhibition (HepG2, 20 µM) is 87%.
“AAGAGCTTCACCAGGGCCTC (sugars e5 d10 e5, PS)”: the target mRNA inhibition is 44% (HepG2, 0.12 µM); 10% and 22% (HepG2, 2.5 µM); 83% (HepG2, 10 µM); 92% (HepG2, 20 µM).
Turning to “GTGCTCTGTGGGCTCCTCCA (sugars e5 d10 e5, PS)”, the target mRNA inhibition stood at 69% (HepG2, 2.5 µM) and 83% (HepG2, 10 µM).
For “AGTCTAGTTGGAAAAGTAGA (sugars e5 d10 e5, PS)”, for the setting “HepG2, 0.12 µM”, the target mRNA inhibition amounted to 16%.
With “CAAATCTGTGTGACCTTGGG (sugars e5 d10 e5, PS)”, the target mRNA inhibition by setting is: (HepG2, 2.5 µM) 65%; (HepG2, 10 µM) 93%.
On the same counts, the results for “GCTCATGAGAAGCTTAGAAG (sugars e5 d10 e5, PS)” are 66% and 86%.
“CAGGACCTCAGGGCTGGCCC (sugars e5 d10 e5, PS)”: the target mRNA inhibition (HepG2, 2.5 µM) was 57% and 50%; the target mRNA inhibition (HepG2, 10 µM) came to 71%.
Consider “GTGACCTTGGGATAGTCCCT (sugars e5 d10 e5, PS)”, for which the target mRNA inhibition reads like this: (HepG2, 2.5 µM) 76% and 69%; (HepG2, 10 µM) 92% and 89%.
For the sequence “TACTGACTTTTTCCTTCTTA (sugars e5 d10 e5, PS)”, where the note is “HepG2, 0.12 µM”, the target mRNA inhibition was determined as 39%.
On the same count and under the same terms, to “GAGGCTCAGGCCTTGACAAC (sugars e5 d10 e5, PS)” belongs 12%.
“GCAGCCTACAAGAGCCTGTT (sugars e5 d10 e5, PS)” came in with a target mRNA inhibition (HepG2, 2.5 µM) of 59% and a target mRNA inhibition (HepG2, 10 µM) of 89%.
Consider “AGCACTGAGATGACCTGTAG (sugars e5 d10 e5, PS)”, for which the target mRNA inhibition (HepG2, 0.12 µM) was found to be 36%.
With “TGCTTATCCTTGAGGGTCTC (sugars e5 d10 e5, PS)”, the target mRNA inhibition by setting is: (HepG2, 2.5 µM) 64%; (HepG2, 10 µM) 84%.
“AGGATGCTTAACTTCTGCTG (sugars e5 d10 e5, PS)” showed a target mRNA inhibition (HepG2, 2.5 µM) of 82% and a target mRNA inhibition (HepG2, 10 µM) of 76%.
With “CCGCGCAGGACCCCGGAGTA (sugars e3 d14 e3, PS)”, the target mRNA inhibition (HepG2, 0.12 µM) is 71%.
Take “GTACTCCCTCAACACAGGCA (sugars e5 d10 e5, PS)”: the target mRNA inhibition (HepG2, 0.12 µM) amounted to 72%.
With “GCTTATCCTTGAGGGTCTCA (sugars e5 d10 e5, PS)”, the target mRNA inhibition by setting is: (HepG2, 2.5 µM) 82% and 77% and 88%; (HepG2, 10 µM) 94% and 89% and 95%.
“AGGGAAGCATGTGCAGCCTA (sugars e5 d10 e5, PS)”: the target mRNA inhibition runs as follows: (HepG2, 2.5 µM) 72% and 66%; (HepG2, 10 µM) 87% and 90%.
“GCCCAATATCTGATATCAAA (sugars e5 d10 e5, PS)”: the target mRNA inhibition runs as follows: (HepG2, 2.5 µM) 80% and 69%; (HepG2, 10 µM) 89% and 84%.
“CACCAGGGCCTCCATGTACA (sugars e3 d14 e3, PS)”: under “HepG2, 0.12 µM”, the target mRNA inhibition was 41%.
The same measure, in the same setting: in the case of “GCATTGCCACTCCCATTCTT (sugars e3 d14 e3, PS)” it was 85%; in that of “TGTGTTCCAGTCAAACACCA (sugars e5 d10 e5, PS)”, 23%.
Still for that read-out and setting: to “TGTAATGGTTTAGCAAAATT (sugars e5 d10 e5, PS)” belongs 26%.
For the sequence “CCAGGTAAGGCCGTATGCCT (sugars e5 d10 e5, PS)”, the target mRNA inhibition was 78% and 76% (HepG2, 0.12 µM); 18% (HepG2, 2.5 µM); 20% (HepG2, 10 µM); 43% (HepG2, 20 µM).
Sequence “GGTAAGGCCGTATGCCTGGG (sugars e3 d14 e3, PS)” yielded a target mRNA inhibition (HepG2, 0.12 µM) of 51%.
As to “GGCTGTCAGAGGCTACTGGC (sugars e5 d10 e5, PS)”, the target mRNA inhibition was determined as 74% (HepG2, 2.5 µM) and 63% (HepG2, 10 µM).
On to “CCTGCTTGTACACTTCATTC (sugars e5 d10 e5, PS)”, for which the target mRNA inhibition is, setting by setting: (HepG2, 2.5 µM) 51%; (HepG2, 10 µM) 87%.
As for “TTGCCACTCCCATTCTTTGA (sugars e2 d13 e5, PS)”, the target mRNA inhibition (HepG2, 0.12 µM) was found to be 57%.
Same read-out and setting: to “GAAACAGGCAGTAGGAAATC (sugars e5 d10 e5, PS)” belongs 23%.
Still for that read-out and setting: to “TGGCACTAAGCTAGGCACAC (sugars e5 d10 e5, PS)” belongs 62%.
In the case of “GGTAAGTCCTGATGATCCCC (sugars e5 d10 e5, PS)”, the target mRNA inhibition reads like this: (HepG2, 2.5 µM) 86% and 74%; (HepG2, 10 µM) 94% and 95%.
For the setting “HepG2, 0.12 µM”, “ACTTCTTCTGGACCCATCGG (sugars e5 d10 e5, PS)” had a target mRNA inhibition of 28%.
For the sequence “GCCAGAGTTATCCTCAATTC (sugars e5 d10 e5, PS)”, the target mRNA inhibition is, setting by setting: (HepG2, 2.5 µM) 89%; (HepG2, 10 µM) 78%.
For “AAGCCTCGGTGTCCTCTCCT (sugars e5 d10 e5, PS)”, in that order: 50% and 87%.
Consider “TCTGGACCCATCGGCCCCAG (sugars e5 d10 e5, PS)”, for which the target mRNA inhibition (HepG2, 0.12 µM) was 20%.
